3 compounds from ChEMBL document CHEMBL3399986, “Rapid 'one-pot' synthesis of a novel benzimidazole-5-carboxylate and its hydrazone derivatives as potential anti-inflammatory and antimicrobial agents” (Bioorg Med Chem Lett, 2015) can be followed below.

In brackets after ≈: the same amount, converted by molar mass.

The test system of series [1] is Staphylococcus aureus. Nature of the series: Antimicrobial activity against Staphylococcus aureus MTCC 3160 after 24 hrs by broth dilution method. The conditions noted are these: MTCC 3160, 24 h. It is filed as functional. A general note: Broth dilution looks for growth in wells or tubes with falling amounts of substance.
The subject of series [2] is MDA-MB-231. The experiment in a line: Cytotoxicity against human MDA-MB-231 cells assessed as cell death at 2.5 ug/ml after 48 hrs by MTT assay. The conditions noted are these: mda-mb-231, 48 h. It is filed as cell-based.
For series [3], the system named is Candida tropicalis. The experiment in a line: Antifungal activity against Candida tropicalis MTCC 183 assessed as zone of inhibition at 5 mg/ml after 24 hrs by agar well diffusion method. In kind it is functional. The conditions noted are these: MTCC 183, 24 h, read-out: IZ. (In agar diffusion tests the substance spreads into inoculated agar from a disc or well.)

The test system of series [4] is Aspergillus niger. Nature of the series: Antifungal activity against Aspergillus niger MTCC 282 after 48 hrs by broth dilution method. It is filed as functional. Particulars: MTCC 282, 48 h.
For series [5], the system named is Rattus norvegicus. Nature of the series: Antiinflammatory activity in rat assessed as inhibition of carrageenan-induced paw edema administered 30 mins prior to carrageenan challenge measured after 1 hr relative to control. In kind it is functional.
For series [6], the system named is Rattus norvegicus. The experiment in a line: Antiinflammatory activity in rat assessed as inhibition of carrageenan-induced paw edema administered 30 mins prior to carrageenan challenge measured after 2 hrs relative to control. In kind it is functional. Background: Carrageenan injected into the paw causes an acute inflammation.
In series [7] the test system is MDA-MB-231. Nature of the series: Cytotoxicity against human MDA-MB-231 cells assessed as cell death at 10 ug/ml after 48 hrs by MTT assay. In kind it is cell-based. Particulars: mda-mb-231, 48 h.
For series [8], the system named is Klebsiella pneumoniae. Nature of the series: Antimicrobial activity against Klebsiella pneumoniae MTCC 3384 assessed as zone of inhibition at 5 mg/ml after 24 hrs by agar well diffusion method. It is filed as functional. Particulars: MTCC 3384, 24 h, read-out: IZ.
The subject of series [9] is Klebsiella pneumoniae. The experiment in a line: Antimicrobial activity against Klebsiella pneumoniae MTCC 3384 after 24 hrs by broth dilution method. It is filed as functional. Particulars: MTCC 3384, 24 h.
Series [10] concerns Bacillus subtilis. Nature of the series: Antimicrobial activity against Bacillus subtilis MTCC 441 after 24 hrs by broth dilution method. It is filed as functional. Particulars: MTCC 441, 24 h.
Series [11] concerns Candida albicans. The experiment in a line: Antifungal activity against Candida albicans MTCC 461 assessed as zone of inhibition at 5 mg/ml after 24 hrs by agar well diffusion method. It is filed as functional. The conditions noted are these: MTCC 461, 24 h, read-out: IZ.
The subject of series [12] is MDA-MB-231. Nature of the series: Cytotoxicity against human MDA-MB-231 cells assessed as cell death at 5 ug/ml after 48 hrs by MTT assay. It is filed as cell-based. The conditions noted are these: mda-mb-231, 48 h.
Series [13] has as its system Aspergillus niger. The experiment in a line: Antifungal activity against Aspergillus niger MTCC 282 assessed as zone of inhibition at 5 mg/ml after 24 hrs by agar well diffusion method. In kind it is functional. The conditions noted are these: MTCC 282, 24 h, read-out: IZ.
The subject of series [14] is Candida tropicalis. The experiment in a line: Antifungal activity against Candida tropicalis MTCC 183 after 48 hrs by broth dilution method. It is filed as functional. Particulars: MTCC 183, 48 h.
Series [15] concerns Escherichia coli. Nature of the series: Antimicrobial activity against Escherichia coli MTCC 4351 after 24 hrs by broth dilution method. It is filed as functional. Particulars: MTCC 4351, 24 h.
Series [16] deals with Penicillium chrysogenum. Nature of the series: Antifungal activity against Penicillium notatum assessed as zone of inhibition at 5 mg/ml after 24 hrs by agar well diffusion method. It is filed as functional. The conditions noted are these: read-out: IZ.
Series [17] has as its system Candida albicans. Nature of the series: Antifungal activity against Candida albicans MTCC 461 after 48 hrs by broth dilution method. In kind it is functional. The conditions noted are these: MTCC 461, 48 h.
Series [18] concerns Rattus norvegicus. The experiment in a line: Antiinflammatory activity in rat assessed as inhibition of carrageenan-induced paw edema administered 30 mins prior to carrageenan challenge measured after 3 hrs relative to control. In kind it is functional.
Series [19] has as its system Bacillus subtilis. The experiment in a line: Antimicrobial activity against Bacillus subtilis MTCC 441 assessed as zone of inhibition at 5 mg/ml after 24 hrs by agar well diffusion method. In kind it is functional. The conditions noted are these: MTCC 441, 24 h, read-out: IZ.
In series [20] the test system is Escherichia coli. Nature of the series: Antimicrobial activity against Escherichia coli MTCC 4351 assessed as zone of inhibition at 5 mg/ml after 24 hrs by agar well diffusion method. It is filed as functional. The conditions noted are these: MTCC 4351, 24 h, read-out: IZ.
In series [21] the test system is MDA-MB-231. The experiment in a line: Cytotoxicity against human MDA-MB-231 cells assessed as cell death at 1 ug/ml after 48 hrs by MTT assay. It is filed as cell-based. The conditions noted are these: mda-mb-231, 48 h.
Series [22] has as its system Staphylococcus aureus. Nature of the series: Antimicrobial activity against Staphylococcus aureus MTCC 3160 assessed as zone of inhibition at 5 mg/ml after 24 hrs by agar well diffusion method. Particulars: MTCC 3160, 24 h, read-out: IZ. In kind it is functional.
For series [23], the system named is Penicillium chrysogenum. The experiment in a line: Antifungal activity against Penicillium notatum after 48 hrs by broth dilution method. In kind it is functional.

One may read the MIC as the lowest concentration that inhibits growth of the organism. `CCCn1c(-c2ccc(Cl)cc2Cl)nc2cc(C(=O)N/N=C/c3ccccc3Cl)ccc21`: the MIC was 25 µg/mL (≈ 51.5 µM) in the series with Staphylococcus aureus [1]; 6.25 µg/mL (≈ 12.9 µM) in the series on Aspergillus niger [4]; 25 µg/mL (≈ 51.5 µM) in the series with Klebsiella pneumoniae [9]; 25 µg/mL (≈ 51.5 µM) in the series with Bacillus subtilis [10]; 6.25 µg/mL (≈ 12.9 µM) against Candida tropicalis [14]; 12.5 µg/mL (≈ 25.7 µM) in the series with Escherichia coli [15]. For the same compound, the minimal inhibitory concentration (MIC) in the series on Candida albicans [17] and against Penicillium chrysogenum [23] was 12.5 µg/mL (≈ 25.7 µM) throughout. For the same compound, the Activity in the series on MDA-MB-231 [2] is on record as -0.44%; in the series with MDA-MB-231 [7], 2.78%; in the series with MDA-MB-231 [12], 1.61%; in the series with MDA-MB-231 [21], -2.05%. Further, the zone of inhibition at 5000 µg/mL turned out to be 18 mm in the series on Candida tropicalis [3]; 17 mm with Klebsiella pneumoniae [8]; 17 mm in the series with Candida albicans [11]; 21 mm with Aspergillus niger [13]; 15 mm with Penicillium chrysogenum [16]; 16 mm in the series with Bacillus subtilis [19]. Also, the figures for the zone of inhibition at 5000 µg/mL with Escherichia coli [20] and in the series with Staphylococcus aureus [22] were 18 mm and 15 mm, respectively. Further, the “inhibition (INH)” value in the series with Rattus norvegicus [5] came to 65.55%; in the series on Rattus norvegicus [6] it was 70.62%; in the series on Rattus norvegicus [18], 71.97%.

Regarding `CCCn1c(-c2ccc(Cl)cc2Cl)nc2cc(C(=O)N/N=C/c3cc(Br)ccc3O)ccc21`, the MIC with Staphylococcus aureus [1] was 3.12 µg/mL (≈ 5.71 µM); against Aspergillus niger [4] it was 3.12 µg/mL (≈ 5.71 µM); against Klebsiella pneumoniae [9], 6.25 µg/mL (≈ 11.4 µM); against Bacillus subtilis [10], 3.12 µg/mL (≈ 5.71 µM); in the series with Candida tropicalis [14] it was 6.25 µg/mL (≈ 11.4 µM); in the series with Escherichia coli [15], 3.12 µg/mL (≈ 5.71 µM). For the same compound, the MIC turned out to be 3.12 µg/mL (≈ 5.71 µM) in the series with Candida albicans [17] and 6.25 µg/mL (≈ 11.4 µM) with Penicillium chrysogenum [23]. The Activity in the series on MDA-MB-231 [2] is given as -6.21%; in the series with MDA-MB-231 [7], 4.46%; in the series with MDA-MB-231 [12], 0.07%; in the series on MDA-MB-231 [21], -6.58%. Also, the zone of inhibition at 5000 µg/mL was 18 mm in the series on Candida tropicalis [3]; 20 mm in the series with Klebsiella pneumoniae [8]; 21 mm in the series with Candida albicans [11]; 22 mm with Aspergillus niger [13]; 18 mm with Penicillium chrysogenum [16]; 22 mm with Bacillus subtilis [19]. For the same compound, the zone of inhibition at 5000 µg/mL with Escherichia coli [20] and in the series on Staphylococcus aureus [22] was 22 mm each time. The “inhibition (INH)” value was 44.81% in the series on Rattus norvegicus [5], 47.41% in the series with Rattus norvegicus [6] and 45.98% in the series with Rattus norvegicus [18].

With `CCCn1c(-c2ccc(Cl)cc2Cl)nc2cc(C(=O)N/N=C/c3cccc(Br)c3)ccc21`, the MIC against Staphylococcus aureus [1] is 6.25 µg/mL (≈ 11.8 µM); against Aspergillus niger [4] it was 3.12 µg/mL (≈ 5.88 µM); in the series on Klebsiella pneumoniae [9], 25 µg/mL (≈ 47.1 µM); in the series with Bacillus subtilis [10] it was 50 µg/mL (≈ 94.3 µM); against Candida tropicalis [14] it was 12.5 µg/mL (≈ 23.6 µM); with Escherichia coli [15] it was 12.5 µg/mL (≈ 23.6 µM). The results for the MIC in the series with Candida albicans [17] and in the series with Penicillium chrysogenum [23] were 12.5 µg/mL (≈ 23.6 µM) and 25 µg/mL (≈ 47.1 µM), respectively. For the same compound, the Activity in the series with MDA-MB-231 [2] is on record as -1.17%; with MDA-MB-231 [7], 7.46%; in the series with MDA-MB-231 [12] it was -2.12%; in the series on MDA-MB-231 [21], -12.5%. In addition, the zone of inhibition at 5000 µg/mL was determined as 16 mm in the series on Candida tropicalis [3]; 17 mm in the series on Klebsiella pneumoniae [8]; 16 mm in the series on Candida albicans [11]; 22 mm in the series with Aspergillus niger [13]; 15 mm with Penicillium chrysogenum [16]; 12 mm in the series on Bacillus subtilis [19]. The zone of inhibition at 5000 µg/mL in the series with Escherichia coli [20] and with Staphylococcus aureus [22] was 18 mm each time. Further, the “inhibition (INH)” value stood at 65.18% in the series with Rattus norvegicus [5], 58.04% in the series on Rattus norvegicus [6] and 72.11% with Rattus norvegicus [18].
